Results on seven substances are retold here after patent publication US20220280594A1, “APPLICATION OF POLYPEPTIDE OR DERIVATIVE THEREOF” (CHENGDU HUITAI BIOMEDICINE CO., LTD., priority 2019, published 2022).

Assay [1] concerns human oral epidermoid carcinoma KB cells. The assay can be described thus: scratch assay, migration of KB cells. It is filed as cell-based. To be noted: 10 μM, 48 hours, control group 54.03 ± 4.21. As for the experimental part: (§1) In the scratch assay, the cell migration rate was negatively correlated with the inhibitory effect of the drug component on tumor cell migration ability. The cell migration inhibition experiment was described as follows: tumor cells were cultured in vitro, cells in logarithmic growth phase were collected and seeded evenly in a 24-well plate at a density of 1-2×10^5 cells/well; the cells were cultured in a cell incubator until a monolayer was formed; a scratch tool was used to make a “-” (straight) scratch on the monolayer of cells; the cells were washed 1-3 times with PBS, and a medium (with 2% fetal bovine serum) containing specific test components was added to the culture. Experimental grouping: PBS control group; polypeptide or derivative thereof treatment group (N1-N54), 10 μM. Three independent parallel wells were set up in each group, and the cells were cultured continuously in a cell incubator for 48 hours. […] At least 3 representative images for each well were taken. ImageJ software was used to count the migration distance of the cells, and the cell migration rate was calculated as: cell migration rate (%)=(width of original scratch−width of current scratch)/width of original scratch×100.
This example was a scratch assay to evaluate the inhibitory effect of the polypeptide or derivative thereof (N1-N54) on the migration ability of human oral epidermoid carcinoma cells (KB). The experimental method was as described in Example 2.

Assay [2] has as its system human liver cancer cells (HepG2). The assay can be described thus: scratch assay, migration of HepG2 cells. To be noted: HepG2, 10 μM, 48 hours; control group 71.01 ± 6.63. It is filed as cell-based. As to the method: as §1
This example was a scratch assay to evaluate the inhibitory effect of the polypeptide or derivative thereof (N1-N54) on the migration ability of human liver cancer cells (HepG2). The experimental method was as described in Example 2.

For assay [3], the system named is human breast cancer cells (MDA-MB-453). The assay can be described thus: scratch assay, migration of MDA-MB-453 cells. Particulars: MDA-MB-453, 10 μM, 48 hours; control group 32.42 ± 2.04. It is filed as cell-based. As to the method:
as §1
This example was a scratch assay to evaluate the inhibitory effect of the polypeptide or derivative thereof (N1-N54) on the migration ability of human breast cancer cells (MDA-MB-453). The experimental method was as described in Example 2.

In assay [4] the test system is human melanoma cells (A375). The assay can be described thus: scratch assay, migration of A375 cells. It is filed as cell-based. Particulars: A375, 10 μM, 48 hours; control group 44.03 ± 6.21. As to the method: as §1
This example was a scratch assay to evaluate the inhibitory effect of the polypeptide or derivative thereof (N1-N54) on the migration ability of human melanoma cells (A375). The experimental method was as described in Example 2.

Assay [5] relates to human lung cancer cells (A549) subcutaneous xenograft. The assay can be described thus: lung cancer subcutaneous xenograft animal model, intravenous injection. It is filed as in vivo, mice (BALB/c-nu/nu). Particulars: intravenous 60 mg/kg once every other day, 20 days; for Weight of tumor (g) (mean ± SD): control 2.53 ± 0.17; for Volume of tumor (mm^3) (mean ± SD): control 3373.26 ± 581.44. As to the method:
Experimental animals: 4-6 weeks old female immunodeficiency mice (BALB/c-nu/nu, Beijing Vital River Laboratory Animal Technology Co., Ltd.).
Subcutaneous xenograft animal model. The number of cells inoculated subcutaneously vin mice was about 2×10^6/200 μL. When the volume of the subcutaneous tumor was greater than 100 mm^3, the mice were randomly divided into groups and subjected to treatment. When the mass volume of the tumors in model control group reached 2000 mm^3 or the animal dies, the treatment ended. The animals were dissected, the tumors were taken out, and the weight and volume of the tumors were measured. During the period of the entire experiment, the mice were observed and the body weight was measured every other day.
The method used in the efficacy test on the lung cancer subcutaneous xenograft animal model was as described in Example 5. The lung cancer cells were the human lung cancer cells (A549), and the route of administration was intravenous injection. This example involved a total of 3 experiments to evaluate N1-N15, N16-N30, and N31-N54 respectively. The experimental procedure, route of administration, dosage and frequency of administration, and detection method were all consistent in the three experiments. The experimental groups were model control group and polypeptide or derivative thereof treatment groups (N1-N15, N16-N30, or N31-N54). The drug dosage of the N1-N54 treatment groups was 60 mg/kg, and the treatment time was 20 days.

The test system of assay [6] is human liver adenocarcinoma cells (SK-HEP-1). The assay can be described thus: transwell invasion assay, SK-HEP-1 cells. It is filed as cell-based. To be noted: SK-HEP-1 transwell invasion, 10 μM, 24 hours; control group 767 ± 91. The text has this:
(§2) The Transwell chamber system was used in the transwell cell invasion experiment. The chamber has an upper layer and a lower layer, which are separated by an artificial semipermeable membrane in the middle. The upper surface of the semipermeable membrane is coated with a layer of artificial matrigel to simulate extracellular matrix. Cells that have invaded through the matrigel and semi-permeable membrane will attach to the lower surface of the semi-permeable membrane. The invasion ability is evaluated by counting the number of cells on the lower surface of the semi-permeable membrane. The number of cells that have invaded is negatively correlated with the inhibitory effect of the drug on the invasion ability of the tumor cells. Transwell invasion assay was performed as follows: tumor cells were cultured in vitro, cells in logarithmic growth phase were collected, and cell suspension was prepared with fresh serum-free medium at a density of 2-3×10^5 cells/mL. Cells were inoculated, 100 μL/well cell suspension (serum-free medium) in the upper chamber and 600 μL/well complete culture medium in the lower chamber. After incubated in 37° C., 5% CO2 incubator for 4-5 hours, serum-free medium (100 μL/well) was added to the control group, and serum-free medium containing polypeptide or derivative thereof (N1-N54) was added to the upper chamber of the treatment group (100 μL/well), the final concentration of the peptide or derivative thereof in the upper chamber was 10 μM. The cells were incubated continuously for 24 hours, and then fixed with methanol and stained with crystal violet. Images were taken under a microscope and the number of invaded cells was counted with ImageJ.
This example was a transwell cell invasion experiment to evaluate the inhibitory effect of the polypeptide or derivative thereof (N1-N54) on the invasion ability of human liver adenocarcinoma cells (SK-HEP-1). The experimental method was as described in Example 4.

In assay [7] the test system is human breast cancer cells (MCF-7). The assay can be described thus: scratch assay, migration of MCF-7 cells. It is filed as cell-based. Particulars: MCF-7, 10 μM, 48 hours; control group 30.97 ± 1.79. As for the experimental part:
as §1
This example was a scratch assay to evaluate the inhibitory effect of the polypeptide or derivative thereof (N1-N54) on the migration ability of human breast cancer cells (MCF-7). The experimental method was as described in Example 2.

The subject of assay [8] is human pancreatic cancer cells (PANC-1). The assay can be described thus: transwell invasion assay, PANC-1 cells. Particulars: PANC-1 transwell invasion, 10 μM, 24 hours; control group 727 ± 68. It is filed as cell-based.
Excerpt: as §2
This example was the transwell cell invasion experiment to evaluate the inhibitory effect of the polypeptide or derivative thereof (N1-N54) on the invasion ability of human pancreatic cancer cells (PANC-1). The experimental method was as described in Example 4.

Ends that are not written are not given here. PEG = not defined here

Turning to “N1: polypeptide with the amino acid sequence set forth in SEQ ID NO: 1 (YRVRFLAKENVTQDAEDN)”, the “Migration rate (%) (mean ± SD, P)” value is 7.49 ± 2.99,*** % in assay [1]; 17.42 ± 7.70,*** % in assay [2]; 13.05 ± 2.05,** % in assay [3]; 8.49 ± 2.99,*** % in assay [4]; 11.18 ± 2.89,** % in assay [7]. For the same substance, the “Weight of tumor (g) (mean ± SD)” value in assay [5] is 1.01 ± 0.2 g. Further, in assay [5], the “Volume of tumor (mm^3) (mean ± SD)” value is listed as 1340.25 ± 319.59 mm^3. Further, the results for the “Number of cells (mean ± SD, P), invaded cells” value (from here on “Number of cells (mean ± SD, P)”) in assay [6] and in assay [8] were 343 ± 38,*** and 83 ± 26,****, respectively.

With “N2: SEQ ID NO: 1 with deletion of one amino acid (position 18) at the carboxyl terminal (YRVRFLAKENVTQDAED)”, the “Migration rate (%) (mean ± SD, P)” value is recorded as 6.82 ± 3.25,*** % in assay [1]; 13.05 ± 6.50,*** % in assay [2]; 12.96 ± 3.13,** % in assay [3]; 6.52 ± 1.25,*** % in assay [4]; 12.32 ± 2.26,** % in assay [7]. Moreover, the “Weight of tumor (g) (mean ± SD)” value in assay [5] worked out at 0.6 ± 0.28 g. In addition, in assay [5], the “Volume of tumor (mm^3) (mean ± SD)” value stood at 1297.28 ± 359.77 mm^3. Also, the results for the “Number of cells (mean ± SD, P)” value in assay [6] and in assay [8] were 432 ± 47,** and 93 ± 19,****, respectively.

With “N3: SEQ ID NO: 1 with deletion of position 18 and PEG modification at the amino terminal ({PEG}-YRVRFLAKENVTQDAED; reading uncertain)”, the “Migration rate (%) (mean ± SD, P)” value was 9.95 ± 2.19,*** % in assay [1]; 17.57 ± 6.98,*** % in assay [2]; 13.04 ± 3.5,** % in assay [3]; 4.91 ± 1.19,*** % in assay [4]; 10.39 ± 2.07,** % in assay [7]. Further, the “Weight of tumor (g) (mean ± SD)” value in assay [5] is given as 0.56 ± 0.16 g. Moreover, in assay [5], the “Volume of tumor (mm^3) (mean ± SD)” value worked out at 1511.56 ± 433.12 mm^3. Besides, the “Number of cells (mean ± SD, P)” value is listed as 372 ± 62,*** in assay [6] and 111 ± 10,**** in assay [8].

With “N4: SEQ ID NO: 1 with deletion of positions 15-18 and positions 1-3 (RFLAKENVTQD)”, the “Migration rate (%) (mean ± SD, P)” value is on record as 5.96 ± 2.32,*** % in assay [1]; 25.37 ± 6.11,*** % in assay [2]; 15.74 ± 4.83,* % in assay [3]; 5.06 ± 2.32,*** % in assay [4]; 13.6 ± 2.28,** % in assay [7]. Further, the “Weight of tumor (g) (mean ± SD)” value in assay [5] was 0.56 ± 0.19 g. Moreover, in assay [5], the “Volume of tumor (mm^3) (mean ± SD)” value is 1515.07 ± 507.99 mm^3. For the same substance, the entries for the “Number of cells (mean ± SD, P)” value in assay [6] and in assay [8] were 411 ± 75,** and 37 ± 4,****, respectively.

Consider “N5: SEQ ID NO: 1 with addition of one amino acid at the carboxyl terminal and deletion of positions 1-3 (RFLAKENVTQDAEDNC)”, for which the “Migration rate (%) (mean ± SD, P)” value was 9.62 ± 3.84,*** % in assay [1]; 19.84 ± 5.04,*** % in assay [2]; 14.74 ± 3.23,** % in assay [3]; 9.82 ± 3.84,*** % in assay [4]; 14.50 ± 2.66,** % in assay [7]. Also, in assay [5], the “Weight of tumor (g) (mean ± SD)” value was 0.71 ± 0.12 g. In addition, in assay [5], the “Volume of tumor (mm^3) (mean ± SD)” value is recorded as 1353.09 ± 422.65 mm^3. Besides, the figures for the “Number of cells (mean ± SD, P)” value in assay [6] and in assay [8] were 353 ± 52,*** and 109 ± 7,****, respectively.

For “N6: SEQ ID NO: 1 with deletion of four amino acids at the carboxyl terminal (positions 15-18) (YRVRFLAKENVTQD)”, the “Migration rate (%) (mean ± SD, P)” value in assay [1] is recorded as 15.79 ± 3.16,** %; in assay [2] it was 16.65 ± 6.70,*** %; in assay [3], 13.01 ± 3.14,** %; in assay [4] it was 11.22 ± 1.65,*** %; in assay [7] it was 15.69 ± 4.09,* %. Further, the “Weight of tumor (g) (mean ± SD)” value in assay [5] turned out to be 0.88 ± 0.19 g. The “Volume of tumor (mm^3) (mean ± SD)” value in assay [5] worked out at 1361.03 ± 248.72 mm^3. In addition, the results for the “Number of cells (mean ± SD, P)” value in assay [6] and in assay [8] were 145 ± 29,**** and 110 ± 5,****, respectively.

Regarding “N7: SEQ ID NO: 1 with addition of one amino acid at the carboxyl terminal and substitution A15R (YRVRFLAKENVTQDREDNC)”, the “Migration rate (%) (mean ± SD, P)” value is given as 11.11 ± 3.86,*** % in assay [1]; 11.54 ± 9.00,*** % in assay [2]; 12.64 ± 2.73,** % in assay [3]; 8.95 ± 1.27,*** % in assay [4]; 12.59 ± 3.23,** % in assay [7]. The “Weight of tumor (g) (mean ± SD)” value in assay [5] was determined as 0.81 ± 0.15 g. The “Volume of tumor (mm^3) (mean ± SD)” value in assay [5] is recorded as 1189.39 ± 200.83 mm^3. Besides, the “Number of cells (mean ± SD, P)” value was 463 ± 52,** in assay [6] and 70 ± 17,**** in assay [8].
